Laboratory results published in patent publication US12029730B2, “Pharmaceutical composition for preventing or treating cancer, containing N-1H-benzimidazol-2-yl-3-(1H-pyrrole-1-yl)benzamide as active ingredient” (KOREA INSTITUTE OF RADIOLOGICAL & MEDICAL SCIENCES, priority 2018, dated 2024).

Experiments:
MASTL kinase = target: T1, MASTL kinase (Homo sapiens, UniProt Q96GX5); assay: In vitro MASTL kinase analysis, immunoblotting for phosphorylated ENSA; format: biochemical; conditions: western blot, 50 μM or more, FIG. 3
T1 construct: GST; purchased Thermo Fisher Scientific
T1 sequence (Q96GX5 1-879): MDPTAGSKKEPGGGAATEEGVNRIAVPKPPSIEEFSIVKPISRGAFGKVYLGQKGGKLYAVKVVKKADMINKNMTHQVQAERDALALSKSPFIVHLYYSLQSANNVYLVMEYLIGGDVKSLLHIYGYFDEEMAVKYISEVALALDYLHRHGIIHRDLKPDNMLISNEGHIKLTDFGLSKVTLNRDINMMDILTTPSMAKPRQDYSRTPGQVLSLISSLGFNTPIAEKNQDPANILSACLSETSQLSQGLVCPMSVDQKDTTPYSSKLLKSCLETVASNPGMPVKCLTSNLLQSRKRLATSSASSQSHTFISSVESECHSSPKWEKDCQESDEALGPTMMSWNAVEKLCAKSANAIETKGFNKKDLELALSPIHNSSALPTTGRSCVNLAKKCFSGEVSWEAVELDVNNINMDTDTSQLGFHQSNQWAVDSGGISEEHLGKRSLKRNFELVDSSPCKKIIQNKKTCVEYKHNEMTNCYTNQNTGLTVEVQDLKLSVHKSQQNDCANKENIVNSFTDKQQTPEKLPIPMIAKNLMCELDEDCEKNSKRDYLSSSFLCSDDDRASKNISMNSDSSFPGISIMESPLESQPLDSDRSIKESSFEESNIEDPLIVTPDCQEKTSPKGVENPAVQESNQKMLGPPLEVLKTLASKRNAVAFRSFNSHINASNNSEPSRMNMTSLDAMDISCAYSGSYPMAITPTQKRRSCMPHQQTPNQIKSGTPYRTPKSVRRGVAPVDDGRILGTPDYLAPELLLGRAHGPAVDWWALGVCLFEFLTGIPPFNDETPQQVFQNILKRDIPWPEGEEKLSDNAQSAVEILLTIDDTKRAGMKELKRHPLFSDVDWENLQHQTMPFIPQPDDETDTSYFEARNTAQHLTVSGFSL
Procedure: The MASTL kinase analysis in vitro was performed by reacting recombinant GST-tagged-MASTL (Thermo Fisher Scientific, Waltham, MA, USA) and his-tagged-ENSA (Sino Biological Inc., Beijing, China) proteins or immunoprecipitated proteins derived from MCF7 cells with the MASTL antibody (AP7147d; Abgent, CA, USA) in a kinase buffer consisting of 100 mM Tris-HCl (pH 7.5), 30 mM MgCl2, 2 mM DTT, 1 mM EDTA and 10 μM ultrapure ATP. The reaction proceeded, and then stopped by treating with SDS-loading buffer. In this experiment, the multi-AGC kinase inhibitor AT13148 was used as a positive control. The reaction was analyzed by performing immunoblotting for phosphorylated ENSA, and the results of the analysis were shown in FIG. 1B, and the results of the experiments confirming the cell survival and the kinase inhibitor activity were shown in FIG. 1C.
A protein kinase analysis was performed using the ADP-Glo™ kinase assay kit according to the standard protocol provided by Promega. […] Then, the reacted product was transferred to a 384-well white plate, and […] was read using a SpectraMax i3× Multi-Mode Microplate Reader (Molecular Devices), and GKI-1, N-(4-chlorophenyl)-3-(1H-pyrazol-4-yl)aniline and AT13148 were used as positive controls. The effect of inhibiting kinase activity of GKI-1 and MKI-1 and its IC50 confirmed through the reading result were shown in FIG. 2. […]

AKT = assay: Western blotting of AKT and GSK-3 phosphorylation in MCF7 cells; format: cell-based, human; conditions: western blot, FIG. 5
Procedure: (§1) 20 μg of protein was separated by SDS-PAGE electrophoresis and transferred to a PVDF membrane, and the following specific antibodies were used: rabbit polyclonal antibody MASTL (Abgent); phospho-ENSA (Ser67)/ARPP19 (Ser62) (#5240), ENSA (#11915S), cleaved PARP (Asp214) (#9541), AKT (#9272), phospho-AKT (ser473) (#9271), phospho-GSK-3α/β (Ser21/9) (#9331), phospho-p70S6K (The 288) (#9205) and phospho-Chk2 (Thr68) (#2661; Cell Signaling Technology, MA); p70S6K (sc-230; Santa Cruz Biotechnology, CA, USA), phospho-H3 (S10) (06-570, Merck, NJ); mouse monoclonal antibody caspase-2 (#2224S). In addition, mouse […] antibody β-actin (C4; Santa Cruz Biotechnology, CA, USA) was used as a loading control, it was washed with 1×PBS/0.1% Tween 20, and the binding protein was detected using HRP-binding secondary antibody and improved chemiluminescence detection system. The remaining conditions of Western blotting were the same as in Example 3, and the image of the band was obtained by Amersham Imager 600 system (GE Healthcare Life Science) or X-Ray film (AG, HealthCare, SC, USA) and it was shown in FIG. 5.

MASTL kinase (p-ENSA) = assay: Western blotting of phosphorylated ENSA in MCF7 cells; format: cell-based, human; conditions: western blot, FIG. 5
Procedure: as §1

phospho-H3 (S10) = assay: Western blotting of phosphorylated H3 in MCF7 cells; format: cell-based, human; conditions: western blot, FIG. 5
Procedure: as §1

## O=C(Nc1nc2ccccc2[nH]1)c1cccc(-n2cccc2)c1 [MKI-1, N-1H-benzimidazol-2-yl-3-(1H-pyrrol-1-yl) benzamide]
MASTL kinase
  ENSA phosphorylation (p-ENSA) in vitro: p-ENSA did not appear
AKT
  activation of AKT / phosphorylated GSK-3: did not regulate the activities of AKT and phosphorylated GSK-3P
MASTL kinase (p-ENSA)
  expression level of phosphorylated p-ENSA: reduced the expression level of phosphorylated p-ENSA in MCF7 cells in a dose-dependent manner
phospho-H3 (S10)
  expression level of phosphorylated H3: increased the expression level of phosphorylated H3 in a dose-dependent manner
